Experimental findings from US10681908B2, “Molecules having pesticidal utility, and intermediates, compositions, and processes, related thereto” (Dow AgroSciences LLC, priority 2016, dated 2020) are described below.

One may read the mortality as the share of the test organisms that died.

What all share (type): in vivo
Series [1] deals with Beet Armyworm (Spodoptera exigua, LAPHEG). As to the kind of experiment: Bioassay on Beet Armyworm (BAW), 128-well diet tray assay. The conditions noted are these: 168 h, 50 μg/cm^2 on artificial diet, second instar larvae, five to seven days, 25° C., read-out: BAW % Control (or Mortality) rating. In outline:
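Artificial diet was surface-treated with 50 μg/cm^2 of compound in 90:10 acetone-water and dried; one to five second-instar larvae were placed per well, eight wells per treatment. Held at 25 °C, 14:10 light-dark, for five to seven days, then percent mortality per well was averaged.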

The subject of series [2] is Cabbage Looper (Trichoplusia ni, TRIPNI). As to the kind of experiment: Bioassay on Cabbage Looper (CL), 128-well diet tray assay. As to conditions: 168 h, 50 μg/cm^2 on artificial diet, second instar larvae, five to seven days, 25° C., read-out: CL % Control (or Mortality) rating. The procedure, abridged:
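Diet-tray assay: 1–5 second-instar larvae per well on artificial diet surface-treated with 50 μg/cm^2 compound (90:10 acetone-water, dried), eight wells per compound. Held at 25° C., 14:10 light-dark for five to seven days; percent mortality per well averaged across the eight wells.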

Series [3] has as its system Green Peach Aphid (Myzus persicae, MYZUPE). Nature of the series: Bioassay on Green Peach Aphid (GPA), foliar spray on infested cabbage seedlings. As to conditions: 72 h, 200 ppm foliar spray, three days, Abbott corrected % control, read-out: GPA % Control (or Mortality) rating. The method, then:
Example B: Bioassays on Green Peach Aphid (Myzus Persicae, MYZUPE) (“GPA”)
Certain molecules disclosed in this document were tested against GPA using procedures described in the following example. In the reporting of the results, the “GPA & YFM Rating Table” was used (See Table Section).
Cabbage seedlings grown in 3-inch pots, with 2-3 small (3-5 cm) true leaves, were used as test substrate. The seedlings were infested with 20-50 GPA (wingless adult and nymph stages) one day prior to chemical application. Four pots with individual seedlings were used for each treatment. Test molecules (2 mg) were dissolved in 2 mL of acetone/methanol (1:1) solvent, forming stock solutions of 1000 ppm test molecule. The stock solutions were diluted 5× with 0.025% Tween 20 in water to obtain the solution at 200 ppm test molecule. A hand-held aspirator-type sprayer was used for spraying a solution to both sides of […] leaves until runoff. Reference plants (solvent check) were sprayed with the diluent only containing 20% by volume of acetone/methanol (1:1) solvent. Treated plants were held in a holding room for three days at approximately 25° C. and ambient relative humidity (RH) prior to grading. Evaluation was conducted by counting the number of live aphids per plant under a microscope. Percent Control was measured by using Abbott's correction formula (W. S. Abbott, “A Method of Computing the Effectiveness of an Insecticide” J. Econ. Entomol. 18 (1925), pp. 265-267) as follows. Corrected % Control=100*(X−Y)/X • where • X=No. of live aphids on solvent check plants and • Y=No. of live aphids on treated plants

The test system of series [4] is Yellow Fever Mosquito (Aedes aegypti, AEDSAE). The conditions noted are these: about 1 day-old larvae, 3 days, room temperature, scored on mortality. In outline: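 Compounds from DMSO master plates (4000 ppm stock) diluted with 90:10 water:acetone, then about 1-day-old larvae in liver-powder water added. Held covered at room temperature for 3 days; each well scored for mortality.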

For `C[C@H](CSCC(F)(F)F)NC(=O)c1ccc(/C(F)=C/C(c2cc(Cl)c(Cl)c(Cl)c2)C(F)(F)F)cc1C(F)(F)F` (stereo partly drawn) [F1, 4-((Z)-1,4,4,4-tetrafluoro-3-(3,4,5-trichlorophenyl)but-1-en-1-yl)-N—((R)-1-((2,2,2-trifluoroethyl)thio)propan-2-yl)-2-(trifluoromethyl)benzamide], the mortality at 50 µg/cm2 in series [1] and in series [2] was 50 to 100% throughout. Further, the mortality at 200 ppm in series [3] was in the range of 0 to 80%.

As for `C[C@H](CS(=O)(=O)CC(F)(F)F)NC(=O)c1ccc(/C(F)=C/C(c2cc(Cl)c(Cl)c(Cl)c2)C(F)(F)F)cc1C(F)(F)F` (stereo partly drawn) [F2, 4-((Z)-1,4,4,4-tetrafluoro-3-(3,4,5-trichlorophenyl)but-1-en-1-yl)-N—((R)-1-((2,2,2-trifluoroethyl)sulfonyl)propan-2-yl)-2-(trifluoromethyl)benzamide], the mortality at 50 µg/cm2 in series [1] and in series [2] was 50 to 100% each time. For the same molecule, the mortality at 200 ppm in series [3] fell in the range of 0 to 80%.

As to `C[C@H](C[S+]([O-])CC(F)(F)F)NC(=O)c1ccc(/C(F)=C/C(c2cc(Cl)c(Cl)c(Cl)c2)C(F)(F)F)cc1C(F)(F)F` (stereo partly drawn) [F3, 4-((Z)-1,4,4,4-tetrafluoro-3-(3,4,5-trichlorophenyl)but-1-en-1-yl)-N-((2R)-1-((2,2,2-trifluoroethyl)sulfinyl)propan-2-yl)-2-(trifluoromethyl)benzamide], the mortality at 50 µg/cm2 in series [1] and in series [2] was 50 to 100% throughout. The mortality at 200 ppm in series [3] lay in the range of 0 to 80%.

Turning to `C[C@H](CSCC(F)(F)F)NC(=O)c1ccc(/C(F)=C/C(c2cc(Br)c(Cl)c(Br)c2)C(F)(F)F)cc1C(F)(F)F` (stereo partly drawn) [F21, 4-((Z)-3-(3,5-Dibromo-4-chlorophenyl)-1,4,4,4-tetrafluorobut-1-en-1-yl)-N—((R)-1-((2,2,2-trifluoroethyl)thio)propan-2-yl)-2-(trifluoromethyl)benzamide], the mortality at 50 µg/cm2 in series [1] and in series [2] was 50 to 100% in each case. The “YFM % Control (or Mortality) rating” value in series [4] is reported as “A (80-100)”. The mortality at 200 ppm in series [3] lay within 80 to 100%.

Consider `C[C@H](CS(=O)(=O)CC(F)(F)F)NC(=O)c1ccc(/C(F)=C/C(c2cc(Br)c(Cl)c(Br)c2)C(F)(F)F)cc1C(F)(F)F` (stereo partly drawn) [F22, 4-((Z)-3-(3,5-Dibromo-4-chlorophenyl)-1,4,4,4-tetrafluorobut-1-en-1-yl)-N—((R)-1-((2,2,2-trifluoroethyl)sulfonyl)propan-2-yl)-2-(trifluoromethyl)benzamide], for which the mortality at 50 µg/cm2 in series [1] and in series [2] was 50 to 100% each time. The “YFM % Control (or Mortality) rating” value in series [4] was “A (80-100)”. Moreover, in series [3], the mortality at 200 ppm lay in the range of 0 to 80%.

In the case of `C[C@H](C[S+](C)[O-])NC(=O)c1ccc(/C(F)=C/C(c2cc(Cl)c(Cl)c(Cl)c2)C(F)(F)F)cc1C(F)(F)F` (stereo partly drawn) [F88, N-((2R)-1-(Methylsulfinyl)propan-2-yl)-4-((Z)-1,4,4,4-tetrafluoro-3-(3,4,5-trichlorophenyl)but-1-en-1-yl)-2-(trifluoromethyl)benzamide], the mortality at 50 µg/cm2 in series [1] and in series [2] was 50 to 100% in each case. In series [3], the mortality at 200 ppm lay within 80 to 100%.

`C[C@H](C[S+]([O-])CCC(F)(F)F)NC(=O)c1ccc(/C(F)=C/C(c2cc(Cl)c(Cl)c(Cl)c2)C(F)(F)F)cc1C(F)(F)F` (stereo partly drawn) [F121, 4-((Z)-1,4,4,4-Tetrafluoro-3-(3,4,5-trichlorophenyl)but-1-en-1-yl)-2-(trifluoromethyl)-N-((2R)-1-((3,3,3-trifluoropropyl)sulfinyl)propan-2-yl)benzamide]: the mortality at 50 µg/cm2 in series [1] and in series [2] was 50 to 100% each time. In addition, the “YFM % Control (or Mortality) rating” value in series [4] was “A (80-100)”.

Regarding `O=C(NCCSCCF)c1ccc(/C(F)=C/C(c2cc(Cl)c(Cl)c(Cl)c2)C(F)(F)F)cc1C(F)(F)F` (centres unmarked) [F125, (Z)—N-(2-((2-Fluoroethyl)thio)ethyl)-4-(1,4,4,4-tetrafluoro-3-(3,4,5-trichlorophenyl)but-1-en-1-yl)-2-(trifluoromethyl)benzamide], the mortality at 50 µg/cm2 in series [1] and in series [2] was 50 to 100% each time. In series [4], the “YFM % Control (or Mortality) rating” value is reported as “D (No activity noticed in this bioassay)”.

Take `C[C@H](CS(=O)(=O)CCC(F)(F)F)NC(=O)c1ccc(/C(F)=C/C(c2cc(Cl)c(Cl)c(Cl)c2)C(F)(F)F)cc1C(F)(F)F` (stereo partly drawn) [F130, 4-((Z)-1,4,4,4-tetrafluoro-3-(3,4,5-trichlorophenyl)but-1-en-1-yl)-2-(trifluoromethyl)-N—((R)-1-((3,3,3-trifluoropropyl)sulfonyl)propan-2-yl)benzamide]: the mortality at 50 µg/cm2 in series [1] and in series [2] was 50 to 100% throughout. In addition, in series [4], the “YFM % Control (or Mortality) rating” value is “B (More than 0-Less than 80)”.

Take `CCC(F)(F)c1cc(Cl)cc(C(/C=C(\F)c2ccc(C(=O)N[C@H](C)CS(=O)(=O)CC(F)(F)F)c(C(F)(F)F)c2)C(F)(F)F)c1` (stereo partly drawn) [F131, 4-((Z)-3-(3-Chloro-5-(1,1-difluoropropyl)phenyl)-1,4,4,4-tetrafluorobut-1-en-1-yl)-N—((R)-1-((2,2,2-trifluoroethyl)sulfonyl)propan-2-yl)-2-(trifluoromethyl)benzamide]: the mortality at 50 µg/cm2 in series [1] and in series [2] was 50 to 100% each time. Also, the “YFM % Control (or Mortality) rating” value in series [4] is reported as “A (80-100)”.

With `CCc1ccc(C(/C=C(\F)c2ccc(C(=O)N[C@H](C)CS(=O)(=O)CC(F)(F)F)c(C(F)(F)F)c2)C(F)(F)F)cc1Cl` (stereo partly drawn) [F141, 4-((Z)-3-(3-Chloro-4-ethylphenyl)-1,4,4,4-tetrafluorobut-1-en-1-yl)-N—((R)-1-((2,2,2-trifluoroethyl)sulfonyl)propan-2-yl)-2-(trifluoromethyl)benzamide], the mortality at 50 µg/cm2 in series [1] and in series [2] was 50 to 100% each time. In addition, the “YFM % Control (or Mortality) rating” value in series [4] is given as “D (No activity noticed in this bioassay)”.

As for `COc1ccc(C(/C=C(\F)c2ccc(C(=O)N[C@H](C)CS(=O)(=O)CC(F)(F)F)c(C(F)(F)F)c2)C(F)(F)F)cc1Cl` (stereo partly drawn) [F142, 4-((Z)-3-(3-Chloro-4-methoxyphenyl)-1,4,4,4-tetrafluorobut-1-en-1-yl)-N—((R)-1-((2,2,2-trifluoroethyl)sulfonyl)propan-2-yl)-2-(trifluoromethyl)benzamide], the mortality at 50 µg/cm2 in series [1] and in series [2] was 50 to 100% each time. Further, the “YFM % Control (or Mortality) rating” value in series [4] is listed as “B (More than 0-Less than 80)”.

On to `CCCC(F)(F)c1cc(Cl)cc(C(/C=C(\F)c2ccc(C(=O)N[C@H](C)CS(=O)(=O)CC(F)(F)F)c(C(F)(F)F)c2)C(F)(F)F)c1` (stereo partly drawn) [F143, 4-((Z)-3-(3-Chloro-5-(1,1-difluorobutyl)phenyl)-1,4,4,4-tetrafluorobut-1-en-1-yl)-N—((R)-1-((2,2,2-trifluoroethyl)sulfonyl)propan-2-yl)-2-(trifluoromethyl)benzamide], for which the mortality at 50 µg/cm2 in series [1] and in series [2] was 50 to 100% in each case. Further, in series [4], the “YFM % Control (or Mortality) rating” value is on record as “D (No activity noticed in this bioassay)”.

As for `C[C@H](CS(=O)(=O)CC(F)(F)F)NC(=O)c1ccc(/C(F)=C/C(c2cc(Cl)c(Cl)c(Cl)c2)C(F)(F)F)c2ccccc12` (stereo partly drawn) [PF1, 4-((Z)-1,4,4,4-Tetrafluoro-3-(3,4,5-trichlorophenyl)but-1-en-1-yl)-N—((R)-1-((2,2,2-trifluoroethyl)sulfonyl)propan-2-yl)-1-naphthamide], the mortality at 50 µg/cm2 in series [1] and in series [2] was 50 to 100% each time. Further, the “YFM % Control (or Mortality) rating” value in series [4] is on record as “A (80-100)”.

`C[C@H](CS(=O)(=O)CC(F)(F)F)NC(=O)c1ccc(/C(F)=C/C(c2ccc(Br)c(Cl)c2)C(F)(F)F)cc1C(F)(F)F` (stereo partly drawn) [PF5, 4-((Z)-3-(4-Bromo-3-chlorophenyl)-1,4,4,4-tetrafluorobut-1-en-1-yl)-N—((R)-1-((2,2,2-trifluoroethyl)sulfonyl)propan-2-yl)-2-(trifluoromethyl)benzamide]: the mortality at 50 µg/cm2 in series [1] and in series [2] was 50 to 100% in each case. In series [4], the “YFM % Control (or Mortality) rating” value is “B (More than 0-Less than 80)”.
